“Also recorded” adds a separate entry of the source.
Assays:
[1] = target: T1, A1-adenosine receptor (A1R) (Mus musculus, UniProt Q60612); experiment: Antagonism of hPAP anti-nociception by the A1R antagonist CPX, CFA model; assay type: in vivo
T1 construct: endogenous in cells; host or cells: wild-type C57BL/6 mice, in vivo (CPX 1 mg/kg i.p.)
T1 sequence (Q60612 1-326): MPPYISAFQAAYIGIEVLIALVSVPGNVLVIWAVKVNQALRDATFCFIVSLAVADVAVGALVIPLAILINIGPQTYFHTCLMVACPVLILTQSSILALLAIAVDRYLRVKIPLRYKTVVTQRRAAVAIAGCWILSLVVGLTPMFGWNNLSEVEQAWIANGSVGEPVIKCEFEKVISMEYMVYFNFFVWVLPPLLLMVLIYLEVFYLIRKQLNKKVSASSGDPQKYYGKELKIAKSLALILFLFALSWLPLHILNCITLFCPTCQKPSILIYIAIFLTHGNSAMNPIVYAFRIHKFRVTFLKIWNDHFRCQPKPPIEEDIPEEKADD
Protocol: Wild-type mice were tested for noxious thermal (FIG. 29A) and mechanical (FIG. 29B) sensitivity before (baseline, BL) and following injection of Complete Freund's Adjuvant (CFA-arrow) into one hindpaw (inflamed paw, open circles or dark squares). The non-inflamed hindpaw served as control (shaded circles or squares). All mice were injected with active hPAP (hPAP-arrow; 250 mU, i.t.). Two days later, half the mice were injected with vehicle (CPXN-arrow, circles; intraperitoneal (i.p.); 1 h before behavioral measurements) while the other half were injected with 8-cyclopentyl-1,3-dipropylxanthine (CPX/V-arrow, squares; 1 mg/kg i.p.; 1 h before behavioral measurements). […] All data are presented as means±SEM.
The responses of wild-type and A1R^−/− mice were also tested using the CFA chronic inflammatory pain model and the SNI neuropathic pain model.

[2] = tested on: PAP (bPAP, mPAP); experiment: Fluorometric acid phosphatase assay (DiFMUP, EnzChek); assay type: biochemical, bovine; mouse; conditions: L-tartrate 10 mM
Protocol: FIG. 3 is a set of bar graphs showing a fluorometric assay to quantify acid phosphatase activity. […] Right-hand Bar Graph: Mouse prostatic acid phosphatase (mPAP) assayed from transfected cell lysates. Activity is reduced by the PAP inhibitor L-tartrate (10 mM). These assays were performed following the manufacturers protocol (EnzChek Assay, Invitrogen, Carlsbad, Calif., United States of America) and quantified using a fluorescent microplate reader.
A way to quantify PAP activity was needed so that reproducible amounts of active PAP protein could be added to cultured cells or injected into live mice for the experiments described below. To accomplish this, two well-established methods were tested for measuring PAP activity: 1) a colorimetric assay using para-nitrophenyl phosphate (p-NPP) hydrolysis; and 2) a fluorometric assay using difluoro-4-methylumbelliferyl phosphate (DiFMUP) hydrolysis (commercially available as the EnzChek Acid Phosphatase kit from Invitrogen, Carlsbad, Calif., United States of America). Based on direct comparisons, it was determined that the fluorometric assay was much more sensitive than p-NPP for quantification of PAP activity. […] This fluorometric assay can thus be used to quantify phosphatase activity of pure PAP protein and PAP from cell lysates.

[3] = tested on: wild-type C57BL/6 male mice; assay type: in vivo, mouse
From the text: Signs of immune and microglial activation can be monitored using molecular markers.

[4] = tested on: wild-type C57BL/6 male mice; experiment: Noxious thermal sensitivity, Hargreaves method (paw withdrawal latency to radiant heat) after i.t. injection; assay type: in vivo, mouse
Protocol: Behavior. C57BL/6 male mice, 2-3 months old, were purchased from Jackson Laboratories (Bar Harbor, Maine, United States of America) for all behavioral experiments involving PAP protein injections. All mice were acclimated to the testing room, equipment and experimenter for one day before behavioral testing. The experimenter was blind to genotype and drug treatment during behavioral testing.
Thermal sensitivity was measured by heating one hindpaw with a Plantar Test apparatus (IITC) following the Hargreaves method (Hargreaves et al., 1988). The radiant heat source intensity was calibrated so that a paw withdrawal reflex was evoked in ˜10 seconds, on average, in wild-type C57BL/6 mice. Cutoff time was 20 s. One measurement was taken from each paw per day to determine paw withdrawal latency. To perform the tail immersion assay, mice were gently restrained in a towel and the distal one-third of the tail was immersed in 46.5° C. water. Latency to withdrawal the tail was measured once per mouse. Mechanical sensitivity was measured using semi-rigid tips attached to an Electronic von Frey apparatus (IITC) as described elsewhere (Cunha et al., 2004; Inoue et al., 2004). Three measurements were taken from each paw (separated at 5 min. intervals) then averaged to determine paw withdrawal threshold in grams.
Intrathecal injections. hPAP, bPAP and vehicle controls were injected into the lumbar region of unanesthetized mice as described (Fairbanks, 2003).
Intrathecal injection was chosen because PAP protein is unlikely to reach spinal cord tissue if injected intraperitoneally.

[5] = tested on: Rat1 cells; experiment: LPA-evoked calcium signaling (Fura2-AM) with LPA pre-incubated with bPAP; assay type: cell-based, rat; conditions: 1 μM LPA incubated 1.5 hr at 37° C. with or without 0.2 mU bPAP, applied 1 minute
Protocol: (“a” in FIG. 4). In parallel, a second tube was incubated containing 1 μM LPA (without bPAP) for 1.5 hr at 37° C. (“b” in FIG. 4). Rat1 cells were loaded with the calcium-sensitive dye Fura2-acetoxymethyl (AM) ester (Dong et al., 2001), and (LPA+bPAP) applied to these cells for 1 minute (see “a” in FIG. 4). Following a brief washout period, (LPA) was applied to the cells for 1 minute (see “b” in FIG. 4).

[6] = tested on: wild-type C57BL/6 male mice; experiment: LPA-evoked sensitization in vivo (i.t. LPA with or without bPAP); conditions: 1 nmol LPA i.t., alone or incubated with 20 μU bPAP 10 min at 37° C.
Protocol: First, mechanical sensitivity was measured with an electronic von Frey apparatus (IITC). Then, thermal sensitivity was measured using the Hargreaves method (radiant heating of hindpaw; IITC Plantar Test Apparatus).

CCCn1c(=O)c2[nH]c(C3CCCC3)nc2n(CCC)c1=O [CPX, 8-cyclopentyl-1,3-dipropylxanthine]
effect on thermal or mechanical sensitivity after hPAP effects wore off ([1]; 1 mg/kg i.p. on day 9): did not affect thermal or mechanical sensitivity | effect on anti-nociceptive effects of hPAP ([1]; 1 mg/kg i.p., two days after hPAP 250 mU i.t., 1 h before behavioral measurements): transiently reversed the anti-nociceptive effects of hPAP in control and inflamed hindpaws; also recorded: transiently antagonized all anti-nociceptive effects of hPAP

O=C(O)[C@H](O)[C@@H](O)C(=O)O [L-tartrate]
effect on PAP phosphatase activity [2]: inhibited; also recorded: reduced

OC[C@H]1O[C@@H](n2cnc3c(NC4CCCC4)ncnc32)[C@H](O)[C@@H]1O [CPA, N^6-cyclopentyladenosine]
motor paralysis ([3]; two highest i.t. doses (dose range 0.0005 nmol-5 nmol)): transient paralysis; also recorded: fore- and hindlimb paralysis | duration of effect on paw withdrawal latency, in words ([4]; i.t., compared with hPAP): short-term effects (lasting hours not days) | effect on noxious thermal sensitivity / paw withdrawal latency ([4]; uninjured wild-type mice, i.t. injection (bPAP 20 μU; hPAP 1.3 mg/mL or 250 mU; ALP 25,000 mU)): dose-dependent increases in paw withdrawal latency

CN1CC[C@]23c4c5ccc(O)c4O[C@H]2[C@@H](O)C=C[C@H]3[C@H]1C5.O=S(=O)(O)O [morphine, morphine sulfate]
side effects ([3]; mouse, in vivo): Side-effects were observed at the two highest doses | increase in paw withdrawal latency above baseline ([4]; single i.t. injection, highest doses): 62.2%±9.9%

lysophosphatidic acid [LPA]
change of intracellular calcium levels [5]: dramatically changed | behavioral sensitization (mechanical allodynia, thermal hyperalgesia) [6]: caused long-lasting mechanical allodynia and thermal hyperalgesia

Reference: patent US20100266569A1, “PROSTATIC ACID PHOSPHATASE FOR THE TREATMENT OF PAIN” (priority 2007, published 2010)
